Measurements published in patent publication US20230287044A1, “NOVEL ANTIBACTERIAL PEPTIDE AND USE THEREOF” (priority 2020, published 2023).
≈ marks a conversion by molar mass, not a printed value. Square brackets hold non-standard residues; d marks the D form. Ends that are not written are not given here. Peptide text beside a SMILES is read from it. * marks the point of attachment. NH(β-GlcNAc) = CC(=O)N[C@@H]1[C@@H](O)[C@H](O)[C@@H](CO)O[C@H]1N*; Hexanoyl = CCCCCC(=O)*

Columns and labels:
[1] = test system: MRPA (P. aeruginosa) CCARM 2180; type: cell-based, Pseudomonas aeruginosa; settings: CCARM 2180, 18 h
Outline: (§1)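 Mid-log cultures grown in CAMHB and diluted to 1× 10^6 cfu/ml in PBS were mixed with an equal volume of peptide in CAMHB (80 µM to 0.63 µM twofold dilutions). MIC taken as the mean of three independent experiments.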

[2] = test system: MRAB (A. baumannii) ATCC BAA 1605; type: cell-based, Acinetobacter baumannii; settings: ATCC BAA 1605, 18 h
Outline: as §1

[3] = test system: MRSA (S. aureus) KCCM 40510; type: cell-based, Staphylococcus aureus; settings: KCCM 40510, 18 h
Outline: as §1

[4] = test system: VRE (E. faecalis) ATCC 51575; type: cell-based, Enterococcus faecalis; settings: ATCC 51575, 18 h
Outline: as §1

Row | Molecule | MIC MRPA (P. aeruginosa) CCARM 2180 [1] [µM] | MIC MRAB (A. baumannii) ATCC BAA 1605 [2] [µM] | MIC MRSA (S. aureus) KCCM 40510 [3] [µM] | MIC VRE (E. faecalis) ATCC 51575 [4] [µM]
1 | CCCCCC(=O)NCCCC[C@@H](N)C(=O)N[C@H](Cc1c[nH]c2ccccc12)C(=O)N[C@H](CC(C)C)C(=O)N[C@H](CC(C)C)C(=O)N[C@H](Cc1c[nH]c2ccccc12)C(=O)N[C@@H](C(=O)NCC(=O)N[C@H](CC(C)C)C(=O)N[C@H](CCCNC(=N)N)C(=O)N[C@H](CCCCN)C(=O)N[C@H](CCCCN)C(=O)N[C@H](CCCNC(=N)N)C(N)=O)[C@H](C)CC [KSH9, kwllwiglrkkr] (H-[dK](Hexanoyl)[dW][dL][dL][dW][dI]G[dL][dR][dK][dK][dR]-NH2; N-terminus assumed) | 10 (≈ 16.9 µg/mL) | 5 (≈ 8.47 µg/mL) | 1.25 (≈ 2.12 µg/mL) | 1.25 (≈ 2.12 µg/mL)
2 | CC[C@@H](C)[C@@H](NC(=O)[C@@H](Cc1c[nH]c2ccccc12)NC(=O)[C@@H](CCCCN)NC(=O)[C@@H](CCCNC(=N)N)NC(=O)[C@H](N)CCCNC(=N)N)C(=O)N[C@H](Cc1c[nH]c2ccccc12)C(=O)N[C@H](Cc1c[nH]c2ccccc12)C(=O)N[C@H](CC(C)C)C(=O)N[C@H](Cc1c[nH]c2ccccc12)C(=O)N[C@H](CCCCN)C(N)=O [KSH51, rrkwiwwlwk] (H-[dR][dR][dK][dW][dI][dW][dW][dL][dW][dK]-NH2; N-terminus assumed) | 5 (≈ 7.78 µg/mL) | 1.25 (≈ 1.95 µg/mL) | 1.25 (≈ 1.95 µg/mL) | 1.25 (≈ 1.95 µg/mL)
3 | CC(C)[C@@H](NC(=O)[C@H](N)Cc1c[nH]c2ccccc12)C(=O)N[C@@H](C(=O)N[C@H](Cc1c[nH]c2ccccc12)C(=O)N[C@@H](C(=O)N[C@@H](C(=O)N[C@H](Cc1c[nH]c2ccccc12)C(=O)N[C@H](CCCCN)C(=O)N[C@H](CCCCN)C(=O)N[C@H](CCCCN)C(N)=O)C(C)C)C(C)C)C(C)C [KSH67, wvvwvvwkkk] (H-[dW][dV][dV][dW][dV][dV][dW][dK][dK][dK]-NH2; N-terminus assumed) | 5 (≈ 6.78 µg/mL) | 1.25 (≈ 1.7 µg/mL) | 0.63 (≈ 0.855 µg/mL) | 0.63 (≈ 0.855 µg/mL)
4 | CC[C@@H](C)[C@@H](NC(=O)[C@@H](Cc1c[nH]c2ccccc12)NC(=O)[C@@H](C)NC(=O)[C@@H](C)NC(=O)[C@H](N)Cc1c[nH]c2ccccc12)C(=O)NCC(=O)N[C@H](CC(C)C)C(=O)N[C@H](CCCNC(=N)N)C(=O)N[C@H](CCCCN)C(=O)N[C@H](CCCNC(=N)N)C(=O)N[C@H](CCCCN)C(N)=O [KSH77, waawiglrkrk] (H-[dW][dA][dA][dW][dI]G[dL][dR][dK][dR][dK]-NH2; N-terminus assumed) | >10 | 2.5 (≈ 3.46 µg/mL) | >10 | >10
5 | WLAWLYLRKKR-NH2 [LSH8] | >40 | 5 | 20 | 20
6 | CC(C)[C@@H](NC(=O)[C@@H](Cc1c[nH]cn1)NC(=O)[C@@H](CCCNC(=N)N)NC(=O)[C@@H](CCCNC(=N)N)NC(=O)[C@H](N)CCCNC(=N)N)C(=O)N[C@H](Cc1c[nH]cn1)C(=O)N[C@@H](C(=O)N[C@@H](C(=O)N[C@H](Cc1c[nH]c2ccccc12)C(=O)N[C@H](CCCCN)C(N)=O)C(C)C)C(C)C [KSH58, rrrhvhvvwk] (H-[dR][dR][dR][dH][dV][dH][dV][dV][dW][dK]-NH2; N-terminus assumed) | 10 (≈ 13.7 µg/mL) | 5 (≈ 6.86 µg/mL) | 10 (≈ 13.7 µg/mL) | 10 (≈ 13.7 µg/mL)
7 | CC(=O)N[C@@H]1[C@@H](O)[C@H](O)[C@@H](CO)O[C@H]1NC(=O)C[C@H](NC(=O)[C@@H](CCCNC(=N)N)NC(=O)[C@@H](CCCNC(=N)N)NC(=O)[C@@H](CCCNC(=N)N)NC(=O)[C@@H](Cc1c[nH]c2ccccc12)NC(=O)[C@H](NC(=O)[C@H](NC(=O)[C@@H](Cc1c[nH]cn1)NC(=O)[C@H](NC(=O)[C@H](NC(=O)[C@H](N)Cc1c[nH]c2ccccc12)C(C)C)C(C)C)C(C)C)C(C)C)C(N)=O [KSH49, wvvhvvwrrrN] (H-[dW][dV][dV][dH][dV][dV][dW][dR][dR][dR]D(NH(β-GlcNAc))-NH2; N-terminus assumed) | 10 (≈ 17.1 µg/mL) | 2.5 (≈ 4.27 µg/mL) | 1.25 (≈ 2.14 µg/mL) | 1.25 (≈ 2.14 µg/mL)
8 | CC(C)[C@@H](NC(=O)[C@H](N)Cc1c[nH]c2ccccc12)C(=O)N[C@H](C)C(=O)N[C@H](Cc1c[nH]c2ccccc12)C(=O)N[C@H](C)C(=O)N[C@@H](C(=O)N[C@H](Cc1c[nH]c2ccccc12)C(=O)N[C@H](CCCNC(=N)N)C(=O)N[C@H](CCCNC(=N)N)C(=O)N[C@H](CCCNC(=N)N)C(N)=O)C(C)C [KSH71, wvawavwrrr] (H-[dW][dV][dA][dW][dA][dV][dW][dR][dR][dR]-NH2; N-terminus assumed) | >10 | 1.25 (≈ 1.73 µg/mL) | 5 (≈ 6.92 µg/mL) | 2.5 (≈ 3.46 µg/mL)
9 | CC[C@H](C)[C@H](NC(=O)[C@H](Cc1c[nH]c2ccccc12)NC(=O)[C@@H](NC(=O)[C@H](CC(C)C)NC(=O)[C@@H](N)Cc1c[nH]c2ccccc12)C(C)C)C(=O)N[C@@H](Cc1c[nH]c2ccccc12)C(=O)N[C@@H](CCCNC(=N)N)C(=O)N[C@@H](CCCCN)C(=O)N[C@@H](CCCCN)C(=O)N[C@@H](CCCNC(=N)N)C(N)=O [LSH28] | 40 (≈ 58.8 µg/mL) | 5 (≈ 7.35 µg/mL) | 10 (≈ 14.7 µg/mL) | 10 (≈ 14.7 µg/mL)
10 | WLWVWVRKKR-NH2 [LSH5] | 40 | 2.5 | 10 | 10
11 | CC(C)[C@@H](NC(=O)[C@@H](Cc1c[nH]c2ccccc12)NC(=O)[C@H](NC(=O)[C@H](NC(=O)[C@@H](Cc1c[nH]c2ccccc12)NC(=O)[C@@H](CCCNC(=N)N)NC(=O)[C@@H](CCCNC(=N)N)NC(=O)[C@H](N)CCCNC(=N)N)C(C)C)C(C)C)C(=O)N[C@H](Cc1c[nH]c2ccccc12)C(=O)N[C@H](Cc1c[nH]c2ccccc12)C(N)=O [KSH83, rrrwvvwvww] (H-[dR][dR][dR][dW][dV][dV][dW][dV][dW][dW]-NH2; N-terminus assumed) | 5 (≈ 7.64 µg/mL) | 10 (≈ 15.3 µg/mL) | 1.25 (≈ 1.91 µg/mL) | 1.25 (≈ 1.91 µg/mL)
12 | CC(C)[C@@H](NC(=O)[C@@H](Cc1c[nH]c2ccccc12)NC(=O)[C@@H](CCCNC(=N)N)NC(=O)[C@@H](CCCNC(=N)N)NC(=O)[C@H](N)CCCNC(=N)N)C(=O)N[C@@H](C(=O)N[C@@H](C(=O)N[C@@H](C(=O)N[C@@H](C(=O)N[C@H](Cc1c[nH]c2ccccc12)C(N)=O)C(C)C)C(C)C)C(C)C)C(C)C [KSH86, rrrwvvvvvw] (H-[dR][dR][dR][dW][dV][dV][dV][dV][dV][dW]-NH2; N-terminus assumed) | 10 (≈ 13.5 µg/mL) | 10 (≈ 13.5 µg/mL) | 1.25 (≈ 1.69 µg/mL) | 1.25 (≈ 1.69 µg/mL)
13 | CC[C@@H](C)[C@@H](NC(=O)[C@@H](Cc1c[nH]c2ccccc12)NC(=O)[C@@H](CCCNC(=N)N)NC(=O)[C@@H](CCCNC(=N)N)NC(=O)[C@@H](CCCNC(=N)N)NC(=O)[C@@H](N)CC(=O)N[C@@H]1O[C@H](CO)[C@@H](O)[C@H](O)[C@H]1NC(C)=O)C(=O)N[C@H](Cc1c[nH]c2ccccc12)C(=O)N[C@@H](C(=O)N[C@H](CC(C)C)C(=O)N[C@H](Cc1c[nH]c2ccccc12)C(=O)N[C@H](CCCCN)C(N)=O)C(C)C [KSH47, Nrrrwiwvlwk] (H-D(NH(β-GlcNAc))[dR][dR][dR][dW][dI][dW][dV][dL][dW][dK]-NH2; N-terminus assumed) | 10 (≈ 18.2 µg/mL) | 1.25 (≈ 2.27 µg/mL) | 2.5 (≈ 4.54 µg/mL) | 2.5 (≈ 4.54 µg/mL)
14 | CC[C@@H](C)[C@@H](NC(=O)[C@@H](Cc1c[nH]c2ccccc12)NC(=O)[C@@H](CCCNC(=N)N)NC(=O)[C@H](N)CCCNC(=N)N)C(=O)N[C@H](Cc1c[nH]c2ccccc12)C(=O)N[C@@H](C(=O)N[C@H](CC(C)C)C(=O)N[C@H](Cc1c[nH]c2ccccc12)C(=O)N[C@@H](CCCNC(=N)N)C(N)=O)C(C)C [KSH55, rrwiwvlwR] (H-[dR][dR][dW][dI][dW][dV][dL][dW]R-NH2; N-terminus assumed) | 2.5 (≈ 3.42 µg/mL) | 0.63 (≈ 0.863 µg/mL) | 0.63 (≈ 0.863 µg/mL) | 0.63 (≈ 0.863 µg/mL)
15 | CC[C@@H](C)[C@@H](NC(=O)[C@@H](Cc1c[nH]c2ccccc12)NC(=O)[C@@H](CCCNC(=N)N)NC(=O)[C@@H](CCCNC(=N)N)NC(=O)[C@H](N)CCCNC(=N)N)C(=O)N[C@H](Cc1c[nH]c2ccccc12)C(=O)N[C@@H](C(=O)N[C@H](CC(C)C)C(=O)N[C@H](Cc1c[nH]c2ccccc12)C(N)=O)C(C)C [KSH73, rrrwiwvlw] (H-[dR][dR][dR][dW][dI][dW][dV][dL][dW]-NH2; N-terminus assumed) | 2.5 (≈ 3.42 µg/mL) | 2.5 (≈ 3.42 µg/mL) | 1.25 (≈ 1.71 µg/mL) | 1.25 (≈ 1.71 µg/mL)
16 | CC[C@@H](C)[C@@H](NC(=O)[C@@H](Cc1c[nH]c2ccccc12)NC(=O)[C@@H](CCCNC(=N)N)NC(=O)[C@@H](CCCNC(=N)N)NC(=O)[C@H](N)CCCNC(=N)N)C(=O)N[C@H](Cc1c[nH]c2ccccc12)C(=O)N[C@H](C)C(=O)N[C@H](C)C(=O)N[C@H](Cc1c[nH]c2ccccc12)C(=O)N[C@H](CCCCN)C(N)=O [KSH74, rrrwiwaawk] (H-[dR][dR][dR][dW][dI][dW][dA][dA][dW][dK]-NH2; N-terminus assumed) | >10 | 2.5 (≈ 3.57 µg/mL) | >10 | >10
